Source: patent publication US20230391774A1, “Novel Compounds” (AC Immune SA, priority 2020, published 2023)
pEC50: −log10 of the molar value. Counter-ions that a name gives are not always drawn.

Key:
[1] = molecular target: T1, flTau aggregates (longest isoform of human Tau, 2N4R) (Homo sapiens, UniProt P10636); experiment: Full-length Tau (flTau) disaggregation assay by Thioflavin T (ThT); format: biochemical; conditions: ThT fluorescence; 60 nM flTau aggregates, 30 minutes at RT; read-out: flTau disaggregation EC50
T1 construct: 35 μM of recombinant full-length (fl) Tau in phosphate-buffered saline (PBS) were aggregated; purchased Biotechne; host or cells: bacteria
T1 sequence (P10636 1-441 isoform P10636-8): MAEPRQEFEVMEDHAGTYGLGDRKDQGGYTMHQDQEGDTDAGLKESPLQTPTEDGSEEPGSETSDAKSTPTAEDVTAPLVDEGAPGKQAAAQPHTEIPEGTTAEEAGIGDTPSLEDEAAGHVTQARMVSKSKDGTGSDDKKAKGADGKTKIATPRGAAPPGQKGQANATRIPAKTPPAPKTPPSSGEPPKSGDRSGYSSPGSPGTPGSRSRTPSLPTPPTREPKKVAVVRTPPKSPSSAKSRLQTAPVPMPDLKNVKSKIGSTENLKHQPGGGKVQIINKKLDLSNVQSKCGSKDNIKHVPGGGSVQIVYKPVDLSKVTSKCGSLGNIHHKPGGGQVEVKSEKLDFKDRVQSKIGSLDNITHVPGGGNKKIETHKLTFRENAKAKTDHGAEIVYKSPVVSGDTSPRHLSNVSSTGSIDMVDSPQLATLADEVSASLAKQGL
Method: Full-Length Tau (flTau) Disaggregation Assay by Thioflavin T (ThT)
The longest isoform of human Tau (2N4R; 441 amino acids) was expressed in bacteria and purified (Biotechne). For the Tau disaggregation assay by ThT, 35 μM of recombinant full-length (fl) Tau in phosphate-buffered saline (PBS) were aggregated for 72 hours at 37° C. in presence of 35 μM of heparin (Sigma-Aldrich) and 10 mM of […] (Sigma-Aldrich) under shaking at 1000 RPM. Compound 1 was dissolved in anhydrous dimethyl sulfoxide (DMSO, Sigma-Aldrich) to reach a concentration of 2.5 mM. flTau aggregates and serial dilutions of compound 1 were mixed together in PBS (volume 50 μL) to a final concentration of 60 nM of flTau aggregates and from 20 to 0.0012 μM of Compound 1. The mixture was incubated for 30 minutes at room temperature (RT), then 40 μL of this mixture were transferred into a black 384-well plate assay (Perkin-Elmer) and mixed with 10 μL of 20 μM ThT in 250 mM glycine (both from Sigma-Aldrich) in PBS. Fluorescence (relative fluorescence units; RFU) was measured in monoplicate or duplicate on a Tecan reader (excitation: 440 nm; emission: 485 nm). Percentage of flTau disaggregation was then calculated and the half maximal effective concentration (EC50) was determined using GraphPad Prism version 8 (GraphPad Software) assuming a one-binding site fitting model, see Table 3 and Table 4.

[2] = molecular target: T2, Tau K18 fragment aggregates (amino acids 244 to 372 of human Tau441) (Homo sapiens, UniProt P10636); experiment: Tau K18 disaggregation assay by ThT; format: biochemical; conditions: ThT fluorescence; 2 μM K18 aggregates, 30 minutes at RT
T2 construct: encompassing amino acids 244 to 372 of the longest isoform (2N4R) of human Tau441; purchased Biotechne; host or cells: bacteria
T2 sequence (P10636 561-689): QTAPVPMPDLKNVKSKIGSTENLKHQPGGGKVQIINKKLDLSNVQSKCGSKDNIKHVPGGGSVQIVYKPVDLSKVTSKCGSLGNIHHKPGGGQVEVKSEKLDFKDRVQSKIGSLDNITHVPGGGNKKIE
Method: Tau K18 Disaggregation Assay by ThT
The Tau K18 fragment, encompassing amino acids 244 to 372 of the longest isoform (2N4R) of human Tau441, was expressed in bacteria and purified (Biotechne). For the K18 disaggregation assay by ThT, 35 μM of recombinant K18 in PBS were aggregated for 24 hours at 37° C. in presence of 25 μM of heparin (Sigma-Aldrich) and 10 mM of 1,4-Dithiothreito (DTT from Sigma-Aldrich) under shaking at 750 RPM. Compound 1 was dissolved in anhydrous dimethyl sulfoxide (DMSO, Sigma-Aldrich) to reach a concentration of 10 mM. K18 aggregates and serial dilutions of compounds were mixed together in PBS (volume 50 μL) to a final concentration of 2 μM of K18 aggregates and from 400 to 0.1 μM of Compound 1. The mixture was incubated for 30 minutes at room temperature (RT), then 40 μL of this mixture were transferred into a black 384-well plate assay (Perkin-Elmer) and mixed with 10 μL of 100 μM ThT in 250 mM glycine (both from Sigma-Aldrich) in PBS. Fluorescence (relative fluorescence units; RFU) was measured in monoplicate or duplicate on a Tecan reader (excitation: 440 nm; emission: 485 nm). Percentage of K18 disaggregation was then calculated and half maximal effective concentration (EC50) was determined using GraphPad Prism version 8 (GraphPad Software) assuming a one-binding site fitting model, see Table 3 and Table 4.

SMILES | pEC50 [1] | pEC50 [2]
Cn1cc(C2CCN(c3ccc4oc(N5CCOCC5)nc4c3)CC2)c2cc(F)ccc21 [Example 51, 5-(4-(5-fluoro-1-methyl-1H-indol-3-yl)piperidin-1-yl)-2-morpholinobenzo[d]oxazole] | 5.00 to 6.00 | 4.30 to 5.00
Cn1cc(C2CCN(c3cnc4nc(N5CCOCC5)sc4c3)CC2)c2cc(F)cnc21 [Example 109, 4-(6-(4-(5-fluoro-1-methyl-1H-pyrrolo[2,3-b]pyridin-3-yl)piperidin-1-yl)thiazolo[4,5-b]pyridin-2-yl)morpholine hydrochloride] | 5.00 to 6.00 | 4.30 to 5.00
c1ccc2c(Nc3ccc4oc(N5CCOCC5)nc4c3)n[nH]c2c1 [Example 36, N-(1H-indazol-3-yl)-2-morpholinobenzo[d]oxazol-5-amine] | 5.00 to 6.00 | 4.30 to 5.00
O=C(Nc1ccc2nc(N3CCOCC3)oc2c1)c1c[nH]c2ncccc12 [Example 15, N-(2-morpholinobenzo[d]oxazol-6-yl)-1H-pyrrolo[2,3-b]pyridine-3-carboxamide] | – | 4.30 to 5.00
c1ccc2c(C3CCN(c4ccc5sc(N6CCOCC6)nc5c4)CC3)n[nH]c2c1 [Example 63, 4-(5-(4-(1H-indazol-3-yl)piperidin-1-yl)benzo[d]thiazol-2-yl)morpholine] | – | 4.30 to 5.00
c1cnc2[nH]cc(C3CCN(c4ccc5oc(N6CCOCC6)nc5c4)CC3)c2c1 [Example 20, 5-(4-(1H-pyrrolo[2,3-b]pyridin-3-yl)piperidin-1-yl)-2-morpholinobenzo[d]oxazole] | > 6.00 | 5.00 to 6.00
Cn1cc(C2CCN(c3ccc4oc(N5CCOCC5)nc4c3)CC2)c2cc(F)cnc21 [Example 23, 5-(4-(5-fluoro-1-methyl-1H-pyrrolo[2,3-b]pyridin-3-yl)piperidin-1-yl)-2-morpholinobenzo[d]oxazole] | – | 4.30 to 5.00
c1ccc2c(C3CCN(c4cnc5nc(N6CCOCC6)oc5c4)CC3)n[nH]c2c1 [Example 47, 6-(4-(1H-indazol-3-yl)piperidin-1-yl)-2-morpholinooxazolo[4,5-b]pyridine] | 5.00 to 6.00 | 4.30 to 5.00
Cn1cc(C2CCN(c3ccc4nc(N5CCOCC5)sc4n3)CC2)c2cc(F)cnc21 [Example 57, 4-(5-(4-(5-fluoro-1-methyl-1H-pyrrolo[2,3-b]pyridin-3-yl)piperidin-1-yl)thiazolo[5,4-b]pyridin-2-yl)morpholine] | – | 4.30 to 5.00
c1ccc2c(N3CCN(c4ccc5oc(N6CCOCC6)nc5c4)CC3)c[nH]c2c1 [Example 56, 5-(4-(1H-indol-3-yl)piperazin-1-yl)-2-morpholinobenzo[d]oxazole] | – | 5.00 to 6.00
O=C(Nc1ccc2nc(N3CCOCC3)oc2c1)c1c[nH]c2ccccc12 [Example 14, N-(2-morpholinobenzo[d]oxazol-6-yl)-1H-indole-3-carboxamide] | – | 4.30 to 5.00
Fc1cnc2c(C3CCN(c4ccc5oc(N6CCOCC6)nc5c4)CC3)c[nH]c2c1 [Example 53, 5-(4-(6-fluoro-1H-pyrrolo[3,2-b]pyridin-3-yl)piperidin-1-yl)-2-morpholinobenzo[d]oxazole] | – | 5.00 to 6.00
Fc1cnc2c(C3CCN(c4ccc5nc(N6CCOCC6)oc5c4)CC3)c[nH]c2c1 [Example 103, 6-(4-(6-fluoro-1H-pyrrolo[3,2-b]pyridin-3-yl)piperidin-1-yl)-2-morpholinobenzo[d]oxazole] | – | 5.00 to 6.00

Now from value to compound:

pEC50 [1] | pEC50 [2] | SMILES
> 6.00 | > 6.00 | O=C(Nc1c[nH]c2ccccc12)c1ccc2oc(N3CCOCC3)nc2c1 [Example 7, N-(1H-indol-3-yl)-2-morpholinobenzo[d]oxazole-5-carboxamide]
5.00 to 6.00 | 5.00 to 6.00 | c1ccc2c(C3CCN(c4ccc5oc(N6CCOCC6)nc5c4)CC3)c[nH]c2c1 [Example 19, 5-(4-(1H-indol-3-yl)piperidin-1-yl)-2-morpholinobenzo[d]oxazole]
5.00 to 6.00 | 5.00 to 6.00 | Cn1cc(C2CCN(c3ccc4nc(N5CCOCC5)oc4c3)CC2)c2cc(F)cnc21 [Example 111, 6-(4-(5-fluoro-1-methyl-1H-pyrrolo[2,3-b]pyridin-3-yl)piperidin-1-yl)-2-morpholinobenzo[d]oxazole hydrochloride]
5.00 to 6.00 | 5.00 to 6.00 | c1ccc2c(C3CCN(c4ccc5nc(N6CCOCC6)sc5c4)CC3)n[nH]c2c1 [Example 44, 4-(6-(4-(1H-indazol-3-yl)piperidin-1-yl)benzo[d]thiazol-2-yl)morpholine]
> 6.00 | 5.00 to 6.00 | Cn1cc(C2=CCN(c3ccc4oc(N5CCOCC5)nc4c3)CC2)c2cc(F)cnc21 [Example 32, 5-(4-(5-fluoro-1-methyl-1H-pyrrolo[2,3-b]pyridin-3-yl)-3,6-dihydropyridin-1(2H)-yl)-2-morpholinobenzo[d]oxazole]
5.00 to 6.00 | 5.00 to 6.00 | c1ccc2c(C3CCN(c4cc5sc(N6CCOCC6)nc5cn4)CC3)n[nH]c2c1 [Example 35, 4-(6-(4-(1H-indazol-3-yl)piperidin-1-yl)thiazolo[4,5-c]pyridin-2-yl)morpholine]
5.00 to 6.00 | 5.00 to 6.00 | c1ccc2c(C3CCN(c4ccc5oc(N6CCOCC6)nc5n4)CC3)n[nH]c2c1 [Example 43, 5-(4-(1H-indazol-3-yl)piperidin-1-yl)-2-morpholinooxazolo[4,5-b]pyridine]
5.00 to 6.00 | 5.00 to 6.00 | c1ccc2c(C3CCN(c4cnc5nc(N6CCOCC6)sc5c4)CC3)n[nH]c2c1 [Example 41, 4-(6-(4-(1H-indazol-3-yl)piperidin-1-yl)thiazolo[4,5-b]pyridin-2-yl)morpholine]
5.00 to 6.00 | > 6.00 | c1ccc2c(C3CCN(c4ccc5oc(N6CCOCC6)nc5c4)C3)n[nH]c2c1 (centres unmarked) [Example 37, 5-(3-(1H-indazol-3-yl)pyrrolidin-1-yl)-2-morpholinobenzo[d]oxazole]
> 6.00 | 5.00 to 6.00 | O=C(Nc1ccc2nc(N3CCOCC3)sc2c1)c1c[nH]c2ccc(F)cc12 [Example 17, 5-fluoro-N-(2-morpholinobenzo[d]thiazol-6-yl)-1H-indole-3-carboxamide]
– | 5.00 to 6.00 | c1ccc2c(C3CCN(c4cnc5sc(N6CCOCC6)nc5c4)CC3)c[nH]c2c1 [Example 65, 4-(6-(4-(1H-indol-3-yl)piperidin-1-yl)thiazolo[5,4-b]pyridin-2-yl)morpholine]
– | 5.00 to 6.00 | c1cc2[nH]cc(C3CCN(c4ccc5oc(N6CCOCC6)nc5c4)CC3)c2cn1 [Example 55, 5-(4-(1H-pyrrolo[3,2-c]pyridin-3-yl)piperidin-1-yl)-2-morpholinobenzo[d]oxazole]
– | 5.00 to 6.00 | Fc1ccc2[nH]cc(C3CCN(c4ccc5oc(N6CCOCC6)nc5c4)CC3)c2c1 [Example 69, 5-(4-(5-fluoro-1H-indol-3-yl)piperidin-1-yl)-2-morpholinobenzo[d]oxazole]
– | 5.00 to 6.00 | c1ccc2c(C3CCN(c4ccc5sc(N6CCOCC6)nc5n4)CC3)n[nH]c2c1 [Example 62, 4-(5-(4-(1H-indazol-3-yl)piperidin-1-yl)thiazolo[4,5-b]pyridin-2-yl)morpholine]
> 6.00 | > 6.00 | C1=C(c2n[nH]c3ccccc23)CCN(c2ccc3oc(N4CCOCC4)nc3c2)C1 [Example 50, 5-(4-(1H-indazol-3-yl)-3,6-dihydropyridin-1(2H)-yl)-2-morpholinobenzo[d]oxazole]
– | 5.00 to 6.00 | c1ccc2c(C3CCN(c4ccc5nc(N6CCOCC6)oc5n4)CC3)n[nH]c2c1 [Example 64, 5-(4-(1H-indazol-3-yl)piperidin-1-yl)-2-morpholinooxazolo[5,4-b]pyridine]
> 6.00 | > 6.00 | c1ccc2c(C3CCN(c4cc5sc(N6CCOCC6)nc5cn4)CC3)c[nH]c2c1 [Example 24, 4-(6-(4-(1H-indol-3-yl)piperidin-1-yl)thiazolo[4,5-c]pyridin-2-yl)morpholine]
